Measured values from EP0326066A2, “Condensed diazepinones, process for their preparation and medicaments containing them” (Dr. Karl Thomae GmbH, priority 1988, dated 1989).

Key:
Speichelsekretion = assay: Inhibition of pilocarpine-induced salivation in the rat; format: in vivo, THOM-Ratten; conditions: urethane-anaesthetised rat, i.v.; dose reducing saliva volume by 50%; 2 mg/kg pilocarpine s.c.
Method: Nach Lavy und Mulder (Arch. int. Pharmacodyn. 178, 437-445, (1969)) erhielten mit 1,2 g/kg Urethan narkotisierte männliche THOM-Ratten steigende Dosen der Substanz i.v.. Die Speichelsekretion wurde durch s.c. Gabe von 2 mg/kg Pilocarpin ausgelöst. Der Speichel wurde mit Fließpapier aufgesaugt, die von ihm eingenommene Fläche alle 5 Minuten planimetrisch bestimmt. Die Dosis der Substanz, die das Speichelvolumen um 50% verminderte, wurde graphisch ermittelt.

Herzfrequenz = assay: Inhibition of the acetylcholine effect on heart rate of the guinea pig; format: in vivo, Meerschweinchen; conditions: anaesthetised guinea pig; 10 µg/kg acetylcholine 5 min after test substance; heart rate (ECG)
Method: (§1) Am narkotisierten Meerschweinchen wurden 5 Minuten nach Gabe der Prüfsubstanz 10 µg/kg Acetylcholin intravenös als auch gleichzeitig intraarteriell injiziert. Dabei wurde die Herzfrequenz durch extrakorporale Ableitung des EKG, der Ausatemwiderstand nach Konzett-Rößler und die Kontraktion der freigelegten Harnblase direkt registriert. Für die Hemmung der Acetylcholinwirkung an den untersuchten Organen wurden Dosis-Wirkungskurven aufgenommen und daraus -log ED₅₀-Werte bestimmt. Ergebnisse siehe Tabelle III.

Bronchien = assay: Inhibition of the acetylcholine effect on bronchi of the guinea pig; format: in vivo, Meerschweinchen; conditions: anaesthetised guinea pig; 10 µg/kg acetylcholine 5 min after test substance; expiratory resistance (Konzett-Rößler)
Method: as §1, with “bestimmt.” for “bestimmt. Ergebnisse siehe Tabelle III.”

Blase = assay: Inhibition of the acetylcholine effect on bladder of the guinea pig; format: in vivo, Meerschweinchen; conditions: anaesthetised guinea pig; 10 µg/kg acetylcholine 5 min after test substance; contraction of exposed urinary bladder
Method: as §1

[1] = biological target: muscarinischen Rezeptoren (Großhirnrinde); assay: Receptor binding test, ³H-NMS displacement, cerebral cortex homogenate; set-up: species or system Sprague-Dawley-Ratten; conditions: rat cerebral cortex homogenate; 0,3 n molar ³H-NMS; 30°C, 45 min; read-out: Rezeptor-Bindungs-Tests IC₅₀ Cortex
Method: (§2) Das Gesamtherz wurde […] Organe wurden abschließend in einem Potter homogenisiert. […] Die Inkubation der Organhomogenate erfolgte bei einer bestimmten Konzentration des Radioliganden und […] Testsubstanzen im Eppendorf-Zentrifugenröhrchen bei 30°C. Die Inkubationsdauer betrug 45 Minuten. Als Radioligand wurde 0,3 n molar 3H-N-Methylscopolamin (3H-NMS) verwendet. Die Inkubation wurde durch Zugabe von […] Puffer mit nachfolgender Vakuumfiltration beendet. Die Filter […] Puffer gespült und […] Summe von spezifischer und unspezifischer Bindung von 3H-NMS. Der Anteil der unspezifischen Bindung wurde definiert als jene Radioaktivität, die in Anwesenheit von 1 μ molar Quinuclidinylbenzilat gebunden wurde. […]. Die IC50-Werte der nicht-markierten Testsubstanzen […] jene Konzentration der Testsubstanz, bei welcher die spezifische Bindung von 3H-NMS an die muscarinischen Rezeptoren in den verschiedenen Organen um 50 % gehemmt wurde. Die Ergebnisse sind aus der Tabelle 1 zu […].

[2] = biological target: T1, muscarinischen Rezeptoren (Gesamtherz) (Rattus norvegicus, UniProt P10980); assay: Receptor binding test, ³H-NMS displacement, whole heart homogenate; set-up: species or system Sprague-Dawley-Ratten; conditions: 0,3 n molar ³H-NMS, 30°C, 45 min, read-out: Rezeptor-Bindungs-Tests IC₅₀ Herz
T1 construct: Das Gesamtherz wurde mit einer Schere zerkleinert; from tissue; host or cells: rat whole heart homogenate
T1 sequence (P10980 1-466): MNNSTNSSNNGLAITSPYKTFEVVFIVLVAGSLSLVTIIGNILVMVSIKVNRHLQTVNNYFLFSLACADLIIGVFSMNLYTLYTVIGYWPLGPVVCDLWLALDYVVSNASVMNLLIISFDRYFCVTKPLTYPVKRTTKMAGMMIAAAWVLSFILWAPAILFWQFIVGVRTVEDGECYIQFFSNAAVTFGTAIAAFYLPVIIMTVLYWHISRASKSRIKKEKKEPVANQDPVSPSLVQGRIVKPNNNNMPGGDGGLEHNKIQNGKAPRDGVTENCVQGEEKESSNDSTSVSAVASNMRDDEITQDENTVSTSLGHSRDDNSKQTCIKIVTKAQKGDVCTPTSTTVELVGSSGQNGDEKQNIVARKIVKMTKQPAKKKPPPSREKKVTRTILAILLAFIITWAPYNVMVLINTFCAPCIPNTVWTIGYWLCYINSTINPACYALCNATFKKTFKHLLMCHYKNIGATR
Method: as §2

vagale Bradykardie (M₂) = assay: M1/M2 selectivity in the rat: inhibition of bradycardia evoked by vagus stimulation; format: in vivo, THOM-Ratten; conditions: i.v., dose reducing vagal bradycardia (M₂) by 50%, 5 min after injection
Method: (§3) Die angewandte Methode wurde von Hammer und Giachetti (Life Sciences 31, 2991-2998 (1982)) beschrieben. 5 Minuten nach intravenöser Injektion steigender Dosen der Substanz wurden entweder der rechte Vagus elektrisch stimuliert (Frequenz: 25 Hz; Pulsbreite: 2ms; Reizdauer: 30s; Voltzahl: supramaximal) oder 0,3 mg/kg McN-A-343 in männliche THOM-Ratten intravenös injiziert. Die durch Vagusstimulation hervorgerufene Bradykardie und der durch McN-A-343 verursachte Blutdruckanstieg wurden bestimmt. Die Dosis der Substanzen, die entweder die vagale Bradykardie (M₂) oder den Blutdruckanstieg (M₁) um 50% verminderte, wurde graphisch ermittelt. Ergebnisse siehe Tabelle II.

Blutdruckanstieg (M₁) = assay: M1/M2 selectivity in the rat: inhibition of blood pressure rise caused by McN-A-343; format: in vivo, THOM-Ratten; conditions: i.v., dose reducing blood pressure rise (M₁) caused by 0,3 mg/kg McN-A-343 by 50%
Method: as §3

Compound | -log ED₅₀ Salivation (Speichelsekretion) | -log ED₅₀ Herz (Herzfrequenz) | -log ED₅₀ Bronchien (Bronchien) | -log ED₅₀ Blase (Blase) | IC50 [1] | IC50 [2] | -log ED₅₀ Herz (vagale Bradykardie (M₂)) | -log ED₅₀ Blutdruck (Blutdruckanstieg (M₁))
CN1CCN(CC(=O)N2c3ccccc3C(=O)Nc3cccnc32)CC1 [C, 5,11-Dihydro-11-[(4-methyl-1-piperazinyl)acetyl]-6H-pyrido[2,3-b][1,4]benzodiazepin-6-on] | 6.22 Mkg⁻¹ | 5.85 Molkg⁻¹ | 6.57 Molkg⁻¹ | 5.36 Molkg⁻¹ | – | – | – | –
CCN(CC)CC1CCCCN1CC(=O)N1c2ccccc2C(=O)Nc2cccnc21 (stereo not drawn) [B, 11-[[2-[(Diethylamino)methyl]-1-piperidinyl]acetyl]-5,11-dihydro-6H-pyrido[2,3-b][1,4]benzodiazepin-6-on] | 5.00 Mkg⁻¹ | 5.84 Molkg⁻¹ | 5.58 Molkg⁻¹ | 4.73 Molkg⁻¹ | 1200 nM | 140 nM | 6.42 Mkg⁻¹ | 5.63 Mkg⁻¹
CN1[C@@H]2CC[C@H]1C[C@@H](OC(=O)C(CO)c1ccccc1)C2 (stereo partly drawn) [D, Atropin] | – | 7.70 Molkg⁻¹ | – | 7.03 Molkg⁻¹ | – | – | 7.94 Mkg⁻¹ | 7.34 Mkg⁻¹
O=C1Nc2cccnc2N(C(=O)CCCCCN2CCCCC2)c2ccccc21 [A, 5,11-Dihydro-11-[6-(1-piperidinyl)-1-oxohexyl]-6H-pyrido[2,3-b][1,4]benzodiazepin-6-on] | 6.65 Mkg⁻¹ | 6.88 Molkg⁻¹ | 7.49 Molkg⁻¹ | 6.20 Molkg⁻¹ | 60 nM | 10 nM | 7.75 Mkg⁻¹ | 6.42 Mkg⁻¹
